# Measurements as given in PMC11855827, “High-Throughput Screening of Five Compound Libraries for Anthelmintic Activity and Toxicity Leads to the Discovery of Two Flavonoid Compounds” (International Journal of Molecular Sciences, 2025).
# Where two headings read alike, the source gives them in different places.
# Tested on: C. elegans
# [1] = Table S2, C. elegans SS assay, 110 μM, 0 h, averages of 4 data points
# [2] = Table S2, C. elegans SS assay, 110 μM, 24 h, averages of 4 data points
Molecule,Percentage of motility inhibition 0 h [1],Percentage of motility inhibition 24 h [2],Percentage of motility inhibition 0 h (110 µM),Percentage of motility inhibition 24 h (110 µM)
C[C@@H]1C[C@@H]([C@@H](O)C(C)(C)O)O[C@H]2C[C@@]3(C)C(=C12)C[C@H](O)[C@H]1[C@@]2(C)CCC(=O)C(C)(C)[C@@H]2CC[C@@]13C [Alisol F],0%,11%,,
Protopine,0%,0%,,
CNc1nc2nc[nH]c2c(=O)[nH]1 [N2‐Methylguanine],,,14%,43%
COc1cc([C@@H]2Oc3c(O)cc([C@H]4Oc5cc(O)cc(O)c5C(=O)[C@@H]4O)cc3[C@H]2CO)ccc1O [Silychristin],33%,2%,,
CC(C)(C)NCc1cc(Nc2ccnc3cc(Cl)ccc23)c2c(c1O)CCCC2.O=P(O)(O)O.O=P(O)(O)O [Naphthoquine (phosphate)],28%,8%,,
C[C@H]1O[C@@H](O[C@H]2CC[C@@]3(C)[C@@H](CC[C@]4(C)[C@@H]3C=CC3=C5CC(C)(C)CC[C@]5(CO)[C@H](O)C[C@]34C)[C@]2(C)CO)[C@H](O)[C@@H](O)[C@H]1O [Prosaikogenin D],15%,54%,,
CC(=O)Oc1ccc([C@@H]2CC(=O)c3c(OC(C)=O)cc(OC(C)=O)cc3O2)cc1 [Naringenin triacetate],0%,14%,,
CC[C@H]1OC(=O)[C@H](C)[C@@H](O[C@H]2C[C@@](C)(OC)[C@@H](O)[C@H](C)O2)[C@H](C)[C@@H](O[C@@H]2O[C@H](C)C[C@H](N(C)C)[C@H]2O)[C@](C)(O)C[C@@H](C)CN[C@H](C)[C@@H](O)[C@]1(C)O [Azathramycin],11%,10%,,
C[N+](C)(CCOc1ccccc1)Cc1ccccc1.O=C([O-])c1cc2ccccc2cc1O [Bephenium (hydroxynaphthoate)],12%,5%,,
C[C@@]12C[C@H](c3ccoc3)O[C@@]13C[C@H](OC3=O)[C@H]1[C@H]2C[C@@H]2C[C@H]1C(=O)O2 [Diosbulbin B],0%,31%,,
CC1(C)S[C@@H]2[C@H](NC(=O)[C@H](NC(=O)N3CCN(S(C)(=O)=O)C3=O)c3ccccc3)C(=O)N2[C@H]1C(=O)[O-].[Na+] [Mezlocillin (sodium)],0%,4%,,
N[C@@H](CCl)C(=O)O [β‐Chloro‐L‐alanine],27%,7%,,
CC1(C)CCC2(C(=O)O)C(O)CC3(C)C(=CCC4C5(C)CC(O)C(O)C(C)(CO)C5CCC43C)C2C1 (stereo not drawn) [Polygalacic acid],3%,0%,,
C=C(CCC(C(=O)O)[C@H]1[C@H](O)C[C@@]2(C)C3=CC[C@H]4C(C)(C)[C@@H](OC(C)=O)CC[C@]4(C)C3=CC[C@]12C)C(C)C (stereo partly drawn) [Dehydropachymic acid],29%,35%,,
CN1[C@@H](CC(=O)c2ccccc2)CCC[C@H]1CC(=O)c1ccccc1 [Lobelanine],0%,5%,,
CC(C)OC(=O)OCOP(=O)(CO[C@H](C)Cn1cnc2c(N)ncnc21)OCOC(=O)OC(C)C.O=C(O)/C=C/C(=O)O [Tenofovir (Disoproxil Fumarate)],5%,1%,,
COc1cc(/C=C/C(=O)OCC[N+](C)(C)C)cc(OC)c1O [Sinapine],,,0%,1%
Cl.NCCS [Cysteamine (hydrochloride)],23%,6%,,
Clinodiside A,1%,0%,,
COc1ccc2cc3[n+](cc2c1O)CCc1cc2c(cc1-3)OCO2.[Cl-] [Berberrubine (chloride)],0%,0%,,
C[C@@]12C[C@@H](c3ccoc3)OC(=O)[C@@H]1CC[C@]1(C)[C@H]2[C@@H]2C=C[C@@]1(O)C(=O)O2 [Columbin],0%,1%,,

Molecule,Percentage of motility inhibition 0 h [1],Percentage of motility inhibition 24 h [2],Percentage of motility inhibition 0 h (110 µM),Percentage of motility inhibition 24 h (110 µM)
O=c1cc(-c2ccccc2)oc2cc(O[C@@H]3O[C@H](CO[C@@H]4O[C@H](CO)[C@@H](O)[C@H](O)[C@H]4O)[C@@H](O)[C@H](O)[C@H]3O)c(O)c(O)c12 [Oroxin B],0%,0%,,
C1=C2CCCN[C@H]2[C@@H]2C[C@H]1[C@H]1CCCCN1C2 [Aloperine],20%,0%,,
CC(C)CCC[C@@H](C)[C@H]1CC[C@H]2[C@@H]3C(=O)C=C4C[C@@H](O)CC[C@]4(C)[C@H]3CC[C@]12C [7-Ketocholesterol],1%,27%,,
COc1cc[nH]c(=O)c1C#N [N‐Demethylricinine],0%,7%,,
C[C@H](CC[C@@H](O[C@@H]1O[C@H](CO)[C@@H](O)[C@H](O)[C@H]1O[C@@H]1O[C@H](CO)[C@@H](O)[C@H](O)[C@H]1O)C(C)(C)O)[C@H]1CC[C@@]2(C)[C@H]3CC=C4[C@@H](CC[C@H](O[C@@H]5O[C@H](CO[C@@H]6O[C@H](CO)[C@@H](O)[C@H](O)[C@H]6O)[C@@H](O)[C@H](O)[C@H]5O)C4(C)C)[C@]3(C)[C@H](O)C[C@]12C [Mogroside IV],0%,43%,,
COc1cc2c(cc1OC)-c1c(C)c3ccc(OC)c(OC)c3c[n+]1CC2.O=[N+]([O-])[O-] [Dehydrocorydaline (nitrate)],5%,0%,,
CC(=O)OC[C@H]1O[C@@H](OC[C@H]2O[C@@H](OC(=O)[C@]34CCC(C)(C)C[C@H]3C3=CC[C@@H]5[C@@]6(C)CC[C@H](O[C@@H]7OC[C@H](O)[C@H](O)[C@H]7O[C@@H]7O[C@H](CO)[C@@H](O)[C@H](O)[C@H]7O)C(C)(C)[C@@H]6CC[C@@]5(C)[C@]3(C)CC4)[C@H](O)[C@@H](O)[C@@H]2O)[C@H](O)[C@@H](O)[C@@H]1O[C@@H]1O[C@@H](C)[C@H](O)[C@@H](O)[C@H]1O [Acanthopanaxoside B],0%,0%,,
C=C(C)[C@@H]1CC[C@]2(C(=O)O)CC[C@]3(C)[C@H](CC[C@@H]4[C@@]5(C)CC[C@H](O)[C@@](C)(CO)[C@@H]5CC[C@]43C)[C@@H]12 [23-Hydroxybetulinic acid],13%,5%,,
Cucurbitacin B,5%,0%,,
C[C@@H]1CC[C@]2(C(=O)O[C@@H]3O[C@H](CO)[C@@H](O)[C@H](O)[C@H]3O)CC[C@]3(C)C(=CC[C@@H]4[C@@]5(C)CC[C@H](O[C@@H]6OC[C@H](O)[C@H](O)[C@H]6O)C(C)(C)[C@@H]5CC[C@]43C)[C@@H]2[C@]1(C)O [Ziyuglycoside I],0%,6%,,
C=C1C2CCC3(C4C[C@H]5C6(CCC[C@@]5(C)CN(CC)C46)[C@H]3[C@H]2O)[C@@H]1O [Bullatine A],0%,3%,,
Nordihydrocapsaicin,,,0%,4%
COc1cc2c(cc1OC)[C@@H](Cc1ccc(O)c(Oc3cc4c(cc3OC)CCN(C)[C@@H]4Cc3ccc(O)cc3)c1)N(C)CC2 [Liensinine],34%,8%,,
Cc1cc(O)c(C(=O)N[C@@H](C(=O)N[C@@H]2C(=O)N3C(C(=O)[O-])=C(CSc4nnnn4C)CS[C@H]23)c2ccc(O)cc2)cn1.[Na+] [Cefpiramide (sodium)],0%,7%,,
O=C([O-])[C@H](O)[C@@H](O)[C@H](O)[C@H](O)CO.[Na+] [Gluconate (sodium)],15%,3%,,
CS(=O)(=O)O.C[C@H]1NCc2cc(-c3ccc4c(=O)c(C(=O)O)cn(C5CC5)c4c3OC(F)F)ccc21.O [Garenoxacin (Mesylate hydrate)],61%,25%,,
Cn1nnc(-c2ccc(-c3ccc(N4C[C@@H](CO)OC4=O)cc3F)cn2)n1 [(S)‐Tedizolid],26%,5%,,
C[C@@H]1O[C@@H](O[C@H]2[C@H](OC(=O)[C@]34CCC(C)(C)C[C@H]3C3=CC[C@@H]5[C@@]6(C)C[C@H](O)[C@H](O[C@@H]7O[C@H](CO)[C@@H](O)[C@H](O)[C@H]7O)[C@@](C)(CO)[C@@H]6CC[C@@]5(C)[C@]3(C)CC4)O[C@H](CO)[C@@H](O)[C@@H]2O)[C@H](O)[C@H](O)[C@H]1O[C@@H]1OC[C@@H](O)[C@H](O)[C@H]1O [Polygalasaponin F],5%,0%,,
O=C1C[C@@H](c2ccccc2)Oc2cc(O[C@@H]3O[C@H](CO)[C@@H](O)[C@H](O)[C@H]3O)cc(O)c21 [Pinocembrin‐7‐O‐β‐D‐glucopyranoside],0%,17%,,
C[C@H]1O[C@@H](O[C@H]2CC[C@@]3(C)[C@@H](CC[C@]4(C)[C@@H]3C=CC3=C5CC(C)(C)CC[C@]5(CO)[C@@H](O)C[C@]34C)[C@]2(C)CO)[C@H](O[C@@H]2O[C@H](CO)[C@@H](O)[C@H](O)[C@H]2O)[C@@H](O[C@@H]2O[C@H](CO)[C@@H](O)[C@H](O)[C@H]2O)[C@H]1O [Buddlejasaponin IVb],0%,4%,,
O.O.O=c1c(O)c(-c2ccc(O)c(O)c2)oc2cc(O)cc(O)c12 [Quercetin (dihydrate)],0%,3%,,
